This is an account of results in paper PMC12196213, “New Insights into the Anticancer Effects and Toxicogenomic Safety of Two β-Lapachone Derivatives” (Pharmaceuticals, 2025).

“And” between values parts separate entries of the source, which are not always exact repeats. Equal entries are not always repeated.

The test system of assay [1] is HeLa (human cervical adenocarcinoma). Kind of assay: MTT cytotoxicity assay, HeLa. Format: cell-based. As to conditions: for IC50: Homo sapiens, HeLa, MTT; for selectivity index (SI): IC50 L929 / IC50 HeLa. How it is done:
(§1) To assess the cytotoxicity of the compounds, the MTT [3-(4,5-dimethylthiazol-2-yl)-2,5-diphenyltetrazolium bromide] assay was employed. The cells (2 × 10^5/mL) were incubated with the substances at concentrations ranging from 0.78 to 25 µg/mL. β-lap was used as a positive control. After 24, 48, or 72 h of incubation, MTT was added at a concentration of 5 mg/mL. Cell viability in different treatments was compared to the negative control using the following formula: Cell viability%=mean absorbance of treated samples/mean absorbance of negative control×100 The IC50 (the concentration that inhibits 50% of cell growth compared to the negative control) was calculated using nonlinear regression in GraphPad Prism 8.0 for Windows (GraphPad Demo Software, San Diego, CA, USA). Experiments were performed in triplicate and in two independent experiments. The protocol is also described in other previous publications. The IC50 of normal and cancer cells was used to calculate the SI of compounds BV3 and BV5. The SI indicated the selectivity of the compounds among the normal cell line (L-929) and a cancer cell line (HCT-116, MDA-MB-231, HepG2, or HeLa). SI is a crucial parameter for therapeutic applications in upcoming clinical trials. Therefore, the following formula was used to calculate SI: SI=IC50(normal cell line)/IC50(cancer cell line)

Assay [2] deals with MDA-MB-231 (human breast adenocarcinoma). Kind of assay: MTT cytotoxicity assay, MDA-MB-231. The note with it: for IC50: Homo sapiens, MDA-MB-231, MDA-MD-231 (so in the source), 72 h, MTT; for selectivity index (SI): IC50 L929 / IC50 MDA-MD-231, 72 h. Format: cell-based. How it is done:
as §1

Assay [3] concerns the target CDK5/p25 (Homo sapiens, UniProt Q00535). The experiment in a line: ADP-Glo kinase assay. The note with it: 10 µM ATP, read-out: % of residual activity; for remaining activity at 1 µM: CDK5/p25, 1 µM compound; for remaining activity at 10 µM: CDK5/p25, 10 µM compound. It counts as biochemical. How it is done:
(§2) Kinase enzymatic activities of CDK5/p25, CDK9/CyclinT, HASPIN, PIM1, GSK3β, CK1ε, ABL1, and JAK3 were assayed using the luminescent ADP detection assay described in Zegzouti et al. (ADP-GloTM assay kit provided by Promega, Madison, WI, USA). Briefly, the reactions were carried out in appropriate kinase buffer, with either protein or peptide as substrate in the presence of 10 µM ATP. Assay conditions used for each kinase tested here are described in Ibrahim et al.. The Envision (PerkinElmer, Waltham, MA, USA) microplate luminometer was used to measure the transmitted signal expressed in Relative Light Unit (RLU). In order to determine the half maximal inhibitory concentration (IC50), the assays were performed in duplicate in the absence or presence of increasing doses of the tested compounds. Kinase activities are expressed in % of maximal activity, i.e., measured in the absence of inhibitor but with a similar dose of DMSO (solvent of the tested compounds).

Assay [4] deals with PIM1 (Homo sapiens, UniProt P11309). The experiment in a line: ADP-Glo kinase assay. It counts as biochemical. The note with it: for remaining activity at 1 µM: PIM1, 1 µM compound; for remaining activity at 1 µM / remaining activity at 10 µM: 10 µM ATP, read-out: % of residual activity; for remaining activity at 10 µM: PIM1, 10 µM compound. How it is done: as §2
Sequence of PIM1 (P11309 whole entry): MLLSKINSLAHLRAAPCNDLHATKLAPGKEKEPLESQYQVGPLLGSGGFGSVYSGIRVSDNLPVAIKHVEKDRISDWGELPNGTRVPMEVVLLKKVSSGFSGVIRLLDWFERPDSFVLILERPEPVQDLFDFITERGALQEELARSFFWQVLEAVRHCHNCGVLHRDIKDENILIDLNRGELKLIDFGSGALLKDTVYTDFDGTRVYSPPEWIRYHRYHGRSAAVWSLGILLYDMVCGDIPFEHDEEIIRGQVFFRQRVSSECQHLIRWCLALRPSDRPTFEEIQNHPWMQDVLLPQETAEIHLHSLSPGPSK
For assay [5], the system named is HCT-116 (human colon carcinoma). The experiment in a line: MTT cytotoxicity assay, HCT-116. Format: cell-based. The note with it: for IC50: Homo sapiens, HCT-116, 72 h, MTT; for selectivity index (SI): IC50 L929 / IC50 HCT-116, 72 h. How it is done:
as §1

The test system of assay [6] is L929 (murine fibroblasts). The experiment in a line: MTT cytotoxicity assay, L929. Format: cell-based. The note with it: Mus musculus, L929, 72 h. How it is done: as §1, with “publications.” for “publications. The IC50 of normal and cancer cells was used to calculate the SI of compounds BV3 and BV5. The SI indicated the selectivity of the compounds among the normal cell line (L-929) and a cancer cell line (HCT-116, MDA-MB-231, HepG2, or HeLa). SI is a crucial parameter for therapeutic applications in upcoming clinical trials. Therefore, the following formula was used to calculate SI: SI=IC50(normal cell line)/IC50(cancer cell line)”

The test system of assay [7] is HepG2 (human hepatocellular carcinoma). The experiment in a line: MTT cytotoxicity assay, HepG2. Format: cell-based. As to conditions: for IC50: Homo sapiens, HepG2, 72 h, MTT; for selectivity index (SI): IC50 L929 / IC50 HepG2, 72 h. As for the experimental part:
as §1

Assay [8] relates to HeLa cells. The experiment in a line: Annexin V-FITC / propidium iodide flow cytometry (apoptosis or necrosis). Format: cell-based, human. The note with it: 48 h; for necrosis compared to negative control: BV3 at the IC50 concentration; for cell viability compared to negative control: IC50 or 2 × IC50. As for the experimental part:
The analysis was performed using flow cytometry with the Annexin V Apoptosis Detection Kit (eBioscience™, USA) following the manufacturer’s instructions. Initially, HeLa cells were incubated at a concentration of 4 × 10^5 cells/mL and treated with the compounds at their IC50 or 2 × IC50 values obtained at 48 h. β-lap was used as a positive control, and the culture medium as the negative control. After 48 h of treatment, the cells were trypsinized and centrifuged at 1200× g for 5 min. Subsequently, the cells were washed with PBS and centrifuged again. The cells were then resuspended in buffer and incubated with 5 µL of Annexin V-FITC for 10 min. Afterward, the cells were washed with the buffer, centrifuged, resuspended in the buffer, and stained with 10 µL of propidium iodide. The cells were acquired using the Guava EasyCyteHT cytometer (Merck-Millipore, Burlington, MA, USA) with Guava—Soft™ software version 2.7. A total of 5000 events were counted per treatment.

The mark [9] stands for this setting: PIM1, dose–response curve, Figure 5.

Sequence of CDK5/p25 (Q00535 whole entry): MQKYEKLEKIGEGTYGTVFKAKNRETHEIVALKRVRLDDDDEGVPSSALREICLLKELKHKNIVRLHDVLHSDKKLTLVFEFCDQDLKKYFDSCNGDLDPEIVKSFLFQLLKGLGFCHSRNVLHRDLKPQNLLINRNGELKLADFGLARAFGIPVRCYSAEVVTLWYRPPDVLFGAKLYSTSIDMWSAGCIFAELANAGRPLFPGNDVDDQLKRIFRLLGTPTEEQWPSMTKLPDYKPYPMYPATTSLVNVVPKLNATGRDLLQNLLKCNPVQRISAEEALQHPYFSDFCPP
Sequence of CDK5/p25 (Q15078 99-307 partner limits assumed): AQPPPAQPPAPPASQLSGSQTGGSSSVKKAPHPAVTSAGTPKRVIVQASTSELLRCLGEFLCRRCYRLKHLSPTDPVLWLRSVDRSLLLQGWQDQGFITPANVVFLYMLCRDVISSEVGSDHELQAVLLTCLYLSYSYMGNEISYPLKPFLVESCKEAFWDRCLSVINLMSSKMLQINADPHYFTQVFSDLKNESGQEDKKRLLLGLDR

On to `CC1(C)CCC2=C(O1)c1ccccc1C(=O)C2=O` [β-lap, β-Lapachone], for which the IC50 in assay [1] (24 h) is 10.7 µM; in assay [1] (48 h) it was 8.87 µM; in assay [1] (72 h), 2.39 µM; in assay [2] it was 3.38 µM; in assay [5], 0.14 µM; in assay [6] it was 4.54 µM. Also, it took 0.12 µM to reach half-maximal inhibition in assay [7] (IC50). Besides, the “selectivity index (SI)” value in assay [1] (72 h) is 1.89 and 1.9; in assay [2], 1.34; in assay [5], 32.4; in assay [7] it was 37.8. For the same molecule, the remaining activity at 1 µM in assay [3] stood at 74%; in assay [4], 56%. Further, the values for the remaining activity at 10 µM in assay [3] and in assay [4] were 88% and 42%, respectively. Further, the “early apoptosis compared to negative control” value in assay [8] is reported as “significantly increased”. Further, the “necrosis compared to negative control” value in assay [8] is “increases”. The “cell viability compared to negative control” value in assay [8] was “reduced the number of viable cells”.
As for `Cc1ccc(NC(=S)N/N=C2\C(=O)C3=C(OC(C)(C)CC3)c3ccccc32)cc1` [BV5, 2-(2,2-dimethyl-5-oxo-3,4-dihydro-2H-benzo[h]chromen-6(5H)-ylidene)-N-(p-tolyl)-thiocarbohydrazide], the IC50 was above 61 µM in assay [1] (24 h); 24.5 µM in assay [1] (48 h); 17.8 µM in assay [1] (72 h); 15.5 µM in assay [2]; 8.74 µM in assay [4] (PIM1, 10 µM ATP); 8.74 µM in assay [4] (setting [9]). Moreover, the IC50 in assay [5] was found to be 36.9 µM; in assay [6], 13.1 µM; in assay [7], 17.9 µM. Besides, the remaining activity at 1 µM in assay [3] is at least 100%; in assay [4], 94%. Besides, the remaining activity at 10 µM was found to be 62% in assay [3] and 42% in assay [4]. The “cell viability compared to negative control” value in assay [8] is “significantly decreased cell viability”.
For the molecule `CC1(C)CCC2=C(O1)c1ccccc1/C(=N/NC(=S)Nc1ccc([N+](=O)[O-])cc1)C2=O` [BV3, 2-(2,2-dimethyl-5-oxo-3,4-dihydro-2H-benzo[h]chromen-6(5H)-ylidene)-N-(4nitrophen-yl)thio-carbohydrazide], the IC50 in assay [1] (24 h) was above 57 µM; in assay [1] (48 h) it was 23.5 µM; in assay [1] (72 h) it was 2.81 µM; in assay [2], 16.5 µM; in assay [4] (PIM1, 10 µM ATP), 4.15 µM; in assay [4] (setting [9]) it was 4.16 µM. Further, the IC50 in assay [5] amounted to 20.6 µM; in assay [6], 44 µM; in assay [7], 12.6 µM. For the same molecule, the “selectivity index (SI)” value amounted to 15.6 in assay [1] (72 h), 2.66 in assay [2], 2.13 in assay [5] and 3.47 in assay [7]. For the same molecule, the remaining activity at 1 µM in assay [3] and in assay [4] was at least 100% throughout. Besides, the remaining activity at 10 µM in assay [3] is 44%; in assay [4], 18%. In assay [8], the “necrosis compared to negative control” value is recorded as “increases”. In addition, the “cell viability compared to negative control” value in assay [8] was “significantly decreased cell viability”.
